This note sets out measurements from ChEMBL document CHEMBL4396863, “Amyloid-Binding Alcohol Dehydrogenase (ABAD) Inhibitors for the Treatment of Alzheimer's Disease” (J Med Chem, 2019).

Series [1] can be described thus: Inhibition of ABAD (unknown origin). Details: species or system Homo sapiens.
Series [2] in a line: Drug uptake in C57BL/6 mouse brain at 10 mg/kg by LC-MS/MS analysis. The format is ADME, organism-based. As to conditions: in vivo.
The nature of series [3]: Cmax in C57BL/6 mouse at 10 mg/kg by LC-MS/MS analysis. Further details: dose 10 mg/kg. It is filed as ADME, organism-based. The conditions noted are these: in vivo.
Series [4] has as its system HEK293. In words: Displacement of radiolabeled estradiol ABAD (unknown origin) transfected in HEK293 cells at 100 uM relative to control. The format is cell-based. As to conditions: Homo sapiens.
In series [5] the test system is HEK293. In words: Displacement of radiolabeled estradiol ABAD (unknown origin) transfected in HEK293 cells at 300 uM relative to control. The format is cell-based. As to conditions: Homo sapiens.
A short description of series [6]: Displacement of radiolabeled estradiol ABAD (unknown origin) transfected in HEK293 cells. It is filed as cell-based, Homo sapiens.

In the case of `COc1ccc2nc(N[C@@H](c3ccc(O)cc3)P(=O)(OC)OC)sc2c1`, in series [1], the IC50 was 52700 nM. Moreover, in series [2], the Drug uptake was 4 to 50 ng/mL. For the same compound, in series [3], the Cmax is 4.8 ng/mL.

`O=C(C(c1ccccc1)n1cnc2[nH]ncc2c1=S)N1CCCCCCC1` (stereo unspecified): the IC50 in series [1] is 96 nM.

In series [1], `CCN(CC)C(=O)C(c1ccccc1)n1cnc2[nH]ncc2c1=S` (stereo unspecified) returned an IC50 of 93 nM.

As to `O=C([C@H](c1ccccc1)n1cnc2[nH]ncc2c1=S)N1CCCCCC1`, the IC50 in series [1] worked out at 92 nM.

In series [1], `COc1ccc(NC(=N)Nc2nc3ccc(OC)cc3s2)cc1` came in with an IC50 of 3060 nM.

As for `COc1cccc(CN2CCN(C[C@@]3(O)CC[C@@]4(C)[C@@H](CC[C@@H]5[C@@H]4CC[C@]4(C)C(=O)CC[C@@H]54)C3)CC2)c1`, the values for the inhibition with HEK293 [4] and in the series on HEK293 [5] were 4.7% and 30%, respectively. This compound returned an IC50 in series [6] of 550 nM.

Compound `CCCCC1(O)CCN(C(=O)C(c2ccccc2)n2cnc3[nH]ncc3c2=S)CC1` (stereo unspecified) came in with an IC50 in series [1] of 71 nM.

The compound `O=C(C(c1ccccc1)n1cnc2[nH]ncc2c1=S)N1CCC(O)(c2ccc(Br)cc2)CC1` (stereo unspecified) registered an IC50 in series [1] of 82 nM. The IC50 values of the last two compounds are within 1.5-fold of each other.

`O=C(C(c1ccccc1)n1cnc2[nH]ncc2c1=S)N1CCC(O)(c2ccccc2)CC1` (stereo unspecified) yielded an IC50 in series [1] of 81 nM. The IC50 values of the last two compounds are within 1.5-fold of each other.

`O=C(Nc1ccc(O)c(Cl)c1)Nc1nc2ccc(F)cc2s1` registered an IC50 in series [1] of 1890 nM.

In the case of `O=C(C(c1cccc(O)c1)n1cnc2[nH]ncc2c1=S)N1CCCCCC1` (stereo unspecified), in series [1], the concentration for half-maximal inhibition (IC50) is 51 nM. Against the preceding compound, the IC50 is about 37-fold lower.

Turning to `O=C(Nc1ccc(O)c(Cl)c1)Nc1nc2ccc(Cl)cc2s1`, the IC50 in series [1] was found to be 1670 nM.
